# Experimental data taken from patent US20080311589A1, “METHOD OF HIGH-THROUGHPUT SCREENING OF MOLECULES AND COMPOUNDS FOR THEIR EFFECTS ON BIOLOGICAL AND CHEMICAL PROCESSES” (priority 1999, published 2008).
# Peptide text beside a SMILES is read from it.
# What was measured:
# [1] = system: 6F mink lung epithelial cells; assay: anti-BrdU cytoblot for suppressors of rapamycin; assay type: cell-based
# Text: FIG. 9. […] A 4 mm scale bar is shown. […] A 4 mm scale bar is shown.
# [2] = system: Mv1Lu mink lung epithelial cells; assay: 384 well anti-BrdU cytoblot; assay type: cell-based; details: 384-well plate; antiproliferative agents 24 hours, then 10 μM BrdU 16 hours (FIG. 2)
# Text: FIG. 1. An immunodetection assay for DNA synthesis in high density arrays of mammalian cells. (a) Cartoon depiction of an anti-BrdU cytoblot. The thymine analog 5-bromodeoxyuridine (BrdU) is incorporated into the DNA of cells that are actively replicating their DNA. The cells are in the well, and BrdU is detected with a two step antibody binding procedure. The second antibody is conjugated to the enzyme horseradish peroxidase. In the presence of the chemiluminescent substrate luminol as well as hydrogen peroxide, light of wavelength 428 nm is generated. The light emission can be detected by exposing the plate to film. (b) A cytoblot can detect TGF-β's ability to prevent BrdU incorporation in mink lung epithelial cells. 2000 Mv1Lu mink lung epithelial cells were seeded in each well of a white, opaque 384 well plate. The cells were seeded in the indicated concentrations of TGF-β in 50 μL of DMEM with 1% fetal bovine serum (FBS), 100 units/mL penicillin G sodium, 100 μg/mL streptomycin sulfate and 100 μM each of the amino acids alanine, aspartic acid, glutamine, glycine, asparagine and proline (referred to throughout as 1% mink medium) and allowed to incubate at 37° C. with 5% CO2. After 16 hours, 5.5 μL of 100 μM BrdU in 1% mink medium was added to each well, for a final concentration of 10 μM BrdU. The cells were incubated at 37° C. with 5% CO2 for an additional 16 hours and then an anti-BrdU cytoblot protocol was performed (see protocol). Wells shown are magnified 4×.
# FIG. 2. A cytoblot can detect the ability of numerous antiproliferative agents to inhibit BrdU incorporation. 2000 Mv1Lu mink lung epithelial cells were seeded in each well of a white, opaque 384 well plate. The cells were seeded in 40 μL of 1% mink media and immediately 40 μL of 2× stocks of the reagents shown was added to each well and the cells were allowed to incubate at 37° C. with 5% CO2. After 24 hours, 9 μL of 100 μM BrdU in 1% mink medium was added to each well, for a final concentration of 10 μM BrdU. The cells were incubated at 37° C. with 5% CO2 for an additional 16 hours and then an anti-BrdU cytoblot protocol was performed (see protocol). Wells shown are magnified 2.5×.
# The ability of the cytoblot assay to detect changes in DNA synthesis was tested by measuring the incorporation of 5-bromodeoxyuridine (BrdU, Sigma Corporation, St. Louis, Mo., Cat.# B9285) into DNA in the presence or absence of the anti-mitogen transforming growth factor β (TGF-β). Mink lung cells, which are responsive to TGF-β, were seeded into each well of an opaque, white 384-well plate. The cells were subsequently treated with varying concentrations of TGF-β for 16 hours and then with 10 μM BrdU for 16 hours. […] The following protocols provide experimental detail. […]
# [3] = system: hyperacetylated histone H4; assay: 384 well anti-acetylated histone H4 cytoblot; assay type: cell-based, human; details: A549 cells; 300 nM trichostatin A, 100 nM trapoxin, 24 hours
# Experimental: FIG. 5. An immunodetection assay for the accumulation of hyperacetylated histone H4 in high density arrays of mammalian cells. A549 human lung carcinoma cells were seeded at a density of 4000 cells in 40 μL of DMEM+ in each well of an opaque 384 well plate and incubated overnight at 37° C. with 5% CO2. Cells were either untreated, washed once and treated with 0.5% serum, 80 pM TGF-β, 300 nM trichostatin A, 100 nM trapoxin or 250 nM nocodazole and incubated for 24 hours at 37° C. with 5% CO2 in a final volume of 50 μL. A cytoblot was performed (see Protocol) and the presence of the hyperacetylated form of histone H4 was detected using a two step antibody binding procedure using an anti-acetylated H4 antibody and a secondary antibody conjugated to the enzyme horseradish peroxidase. Wells are shown magnified 25×.
# Any post-translational modification that can be recognized by an antibody (or ligand) may be used in a cytoblot screen. […] In addition, antibodies against the phosphorylated form of nucleolin (FIG. 6a) or histone H3 (FIG. 6b) were used to detect the presence of phosphonucleolin or phosphohistone H3 respectively, both of which server as biochemical markers of the mitotic state of cells (Anderson et al. Experimental Cell Research 238: 498-502 1998; Vincent et al. J. Cell. Biol. 132:413-425. 1996)). The following protocol provides experimental detail. […]
smiles,measurement,setting,value
CO[C@H]1C[C@@H]2CC[C@@H](C)[C@@](O)(O2)C(=O)C(=O)N2CCCC[C@H]2C(=O)O[C@H]([C@H](C)C[C@@H]2CC[C@@H](O)[C@H](OC)C2)CC(=O)[C@H](C)/C=C(\C)[C@@H](O)[C@@H](OC)C(=O)[C@H](C)C[C@H](C)/C=C/C=C/C=C/1C [rapamycin],concentration that prevents BrdU incorporation,[1]; 6F mink lung cells,20 nM
"O=C(CCCCC[C@@H]1NC(=O)[C@H]2CCCCN2C(=O)[C@H](Cc2ccccc2)NC(=O)[C@H](Cc2ccccc2)NC1=O)C1CO1 (stereo partly shown) [trapoxin, trapoxin A] (HELM PEPTIDE1{F.F.[O=C([C@H]1CCCCN1[*:1])[*:2]].[O=C(CCCCC[C@H](N[*:1])C(=O)[*:2])C1CO1]}$PEPTIDE1,PEPTIDE1,1:R1-4:R2$$$V2.0)",BrdU incorporation,[2],effectively prevent BrdU incorporation
same,acetylation of histone H4,[3],increase in the acetylation of histone H4
C=CC[C@@H]1/C=C(\C)C[C@H](C)C[C@H](OC)[C@H]2O[C@@](O)(C(=O)C(=O)N3CCCC[C@H]3C(=O)O[C@H](/C(C)=C/[C@@H]3CC[C@@H](O)[C@H](OC)C3)[C@H](C)[C@@H](O)CC1=O)[C@H](C)C[C@@H]2OC [FK506],excess of FK506 that suppresses the antiproliferative effect of rapamycin,"[1]; rapamycin and FK506 together 16 hours, then with BrdU 16 hours",30-100 fold
